In assay [1] the test system is TNFα release from THP-1 cells. In words: Inhibition of TNFα release from LPS-stimulated THP-1 cells, ELISA. In kind it is cell-based. The note with it: Homo sapiens, THP-1, THP-1 cells, read-out: [CELL] THP-1, IC50, TNF ALPHA, ELISA. From the text: Compounds of the invention are screened for the ability to inhibit TNFα and IL-1β release from THP-1 cells stimulated with lipopolysaccharide (LPS) in vitro. The ability of compounds to inhibit TNFα and IL-1β release in this in vitro assay is correlated with the inhibition of p38 activity and TNFα and IL-1β expression in vivo, and is therefore an indicator of potential in vivo therapeutic activity (Lee J. C. et al, Ann. N.Y. Acad. Sci. 696: 149-170, 1993 and Nature, 372: 739-746, 1994).
Materials: THP-1 cells from ATCC (TIB202) are maintained at 37° C., 5% CO2 in RPMI 1640 media (available from MediaTech, Herndon, Va.) containing 4.5 g/L glucose, supplemented with 10% fetal bovine serum, 1% penicillin/streptomycin and 50 μM β-mercaptoethanol.
Methods: Test compounds are initially dissolved in RPMI media with 1% DMSO (v/v). Compounds are then serially diluted in RPMI media for all subsequent dilutions. The assay is performed under sterile conditions. THP-1 cells at a culture density of 6-8×10^5 cells/ml are collected and resuspended in the RPMI media at 10^6 cells/ml containing 10% fetal bovine serum, no serum or 1% human serum albumin (HSA). 100 μl of resuspended cells are added to each well, which contain 100 μl of a test compound. Test compounds are prepared at twice the final concentration. Final DMSO concentration is no more than 0.5% (v/v). Cells are preincubated with compound for 30 minutes at 37° C., 5% CO2 prior to stimulation with lipopolysaccharide (LPS) (Sigma L-2880, 4 mg/ml stock in PBS). The final LPS concentration in each well is 10 or 30 μg/ml for TNFα and IL-1β release, respectively. Unstimulated control cell suspensions receive PBS vehicle only. Cell mixtures are incubated for 18 or 48 hours for TNFα and IL-1β prelease, respectively. 150 μl of supernatants are taken and transferred to a fresh plate and stored at −20° C. until further analysis. TNFα and IL-1β levels are measured using ELISA kits from Biosource (Catalog no. KHC3012 for TNFα; KAC1192 for IL-1β). A SpectraMAX 250 is used as the plate reader. Analysis is performed by non-linear regression to generate a dose response curve. The calculated IC50 value is the concentration of the test compound that causes a 50% decrease in TNFα or IL-1β levels.
(An ELISA detects its analyte on a solid surface through an enzyme-linked reagent.)

For assay [2], the target named is T1, p38α (Homo sapiens, UniProt Q16539).
T1 construct: p38 MAP Kinases are recombinant human full-length proteins with an amino-terminal GST fusion; GST (N); purchased Upstate Biotechnology Inc; host or cells: E. coli
In words: p38 MAP Kinase assay: inhibition of ATF2 phosphorylation, ELISA. In kind it is biochemical. The note with it: for IC50: ATF2 phosphorylation, read-out: [ENZ] P38 ALPHA, IC50, ELISA; for inhibition at 10 µM: substrate ATF2, read-out: [ENZ] P38 ALPHA, PCT INH, ELISA (10 uM;ATF2) (Percent). The gist of the method: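 GST-tagged full-length human p38 MAP kinase with GST-ATF2 (aa 19–96; 1.25 μM) and 40 μM ATP in HEPES pH 7.5 buffer, without (Method I) or with (Method II) 1% human serum albumin. Compound pre-incubated 15 min at room temperature; reaction 30 min at 37 °C; ATF2 Thr69 phosphorylation measured by ELISA (A450).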

Several values for one entry are separate records, joined by “and”; a condition that tells them apart may be missing. Identical values can stand only once.

Usually IC50 stands for the point on the concentration scale where inhibition reaches its midpoint.

T1 sequence (Q16539 whole entry, the tested form may be a part): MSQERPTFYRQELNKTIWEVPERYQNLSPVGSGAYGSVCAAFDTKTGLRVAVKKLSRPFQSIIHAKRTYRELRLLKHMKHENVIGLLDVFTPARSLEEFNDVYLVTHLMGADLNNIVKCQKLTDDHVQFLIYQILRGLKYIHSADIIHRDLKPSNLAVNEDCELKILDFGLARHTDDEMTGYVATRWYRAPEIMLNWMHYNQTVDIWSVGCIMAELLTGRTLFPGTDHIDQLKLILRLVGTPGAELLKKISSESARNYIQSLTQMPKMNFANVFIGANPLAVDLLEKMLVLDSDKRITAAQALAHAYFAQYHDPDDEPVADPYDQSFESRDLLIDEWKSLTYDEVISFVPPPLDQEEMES

For the compound `O=C(Nc1ccc(Oc2ccnc(N3CCCCC3)n2)c2ccccc12)c1cc(F)cc(N2CCCCC2)c1` [Compound B375, 3-Fluoro-5-piperidin-1-yl-N-{4-[(2-piperidin-1-ylpyrimidin-4-yl)oxy]-1-naphthyl}benzamide], the IC50 is > 1000 nM in assay [1] and 107 nM in assay [2].
For `O=C(Nc1ccc(NCCN2CCOCC2)c2ccccc12)c1cc(F)cc(N2CCOCC2)c1` [Compound B241], in that order: 9420 nM and 8250 nM.
For `O=C(Nc1ccc(OCCN2CCSCC2)c2ccccc12)c1ccc(CN2CCOCC2)cc1` [Compound B4], in that order: > 10000 nM and > 100000 nM.
In the same order, the values of `O=C(Nc1ccc(OCCN2CCOCC2)c2ccccc12)c1cccc(-c2ccc3c(c2)OCO3)c1` [Compound B273] are > 10000 nM and > 10000 nM.
For the compound `N#Cc1ccc(-c2cccc(C(=O)Nc3ccc(OCCN4CCOCC4)c4ccccc34)c2)cc1` [Compound B285], the IC50 is 9790 nM in assay [1] and > 10000 nM in assay [2].
For `CC1CCN(c2cc(F)cc(C(=O)Nc3ccc(OCc4nn[nH]n4)c4ccccc34)c2)CC1` [Compound B193, 3-Fluoro-5-(4-methylpiperidin-1-yl)-N-[4-(2H-tetrazol-5-ylmethoxy)-naphthalen-1-yl]-benzamide], in that order: > 10000 nM and 3840 nM.
For `CSc1nccc(Oc2ccc(NC(=O)c3cccc(-c4ccc(F)cc4C)c3)c3ccccc23)n1` [Compound B269, 4′-Fluoro-2′-methyl-biphenyl-3-carboxylic acid [4-(2-methylsulfanylpyrimidin-4-yloxy)-naphthalen-1-yl]-amide], in that order: 152 nM and 162 nM.
For `CC(C)(C)OC(=O)Nc1cccc(C(=O)Nc2ccc(OCCN3CCOCC3)c3ccccc23)c1` [Compound B63], in that order: > 10000 nM and > 10000 nM.
Consider `O=C(Nc1ccc(OCCN2CCOCC2)c2ccccc12)c1cccc(CN2CCCCC2)c1` [Compound B55], for which the IC50 in assay [1] and in assay [2] was > 10000 nM in each case.
Turning to `O=C(Nc1ccc(CCCN2CCOCC2)c2ccccc12)c1cc(F)cc(N2CCOCC2)c1` [Compound B240, 3-Fluoro-5-morpholin-4-yl-N-[4-(3-morpholin-4-yl-propyl)-naphthalen-1-yl]-benzamide], the IC50 in assay [1] and in assay [2] was 1010 nM throughout.
`O=C(Nc1ccc(OCCN2CCCCC2)c2ccccc12)c1ccc(CN2CCOCC2)cc1` [Compound B2]: the concentration for half-maximal inhibition (IC50) in assay [1] and in assay [2] was > 10000 nM throughout.
For the compound `Cc1ccc(C(=O)Nc2ccc(OCCN3CCOCC3)c3ccccc23)cc1N1CCOCC1` [Compound B40, 4-Methyl-3-morpholin-4-yl-N-[4-(2-morpholin-4-yl-ethoxy)-naphthalen-1-yl]-benzamide], the values for the IC50 in assay [1] and in assay [2] were > 10000 nM and 2490 nM, respectively.
In the same order, the values of `CCOC(=O)N1CCC(Nc2nccc(Oc3ccc(NC(=O)c4cc(F)cc(N5CCCCC5)c4)c4ccccc34)n2)CC1` [Compound B401, Ethyl-4-{[4-({4-[(3-fluoro-5-piperidin-1-ylbenzoyl)amino]-1-naphthyl}oxy)pyrimidin-2-yl]amino}piperidine-1-carboxylate] are 1100 nM and 25.6 nM.
Turning to `CC(=O)N1CCN(c2nccc(Oc3ccc(NC(=O)c4cc(F)cc(N5CCOCC5)c4)c4ccccc34)n2)CC1` [Compound B354], the concentration for half-maximal inhibition (IC50) in assay [1] was determined as 217 nM; in assay [2] it was 9.4 nM.
Take `O=C(Nc1ccc(OCCN2CCOCC2)c2ccccc12)c1ccnc(N2CCOCC2)c1` [Compound B122, 2-Morpholin-4-yl-N-[4-(2-morpholin-4-yl-ethoxy)-naphthalen-1-yl]-isonicotinamide]: the 50% inhibitory concentration (IC50) in assay [1] was found to be 2100 nM. For the same compound, in assay [2], the inhibition at 10 µM amounted to 73.5% and the IC50 turned out to be 3520 nM.
On to `O=C(Nc1ccc(OCCN2CCOCC2)c2ccccc12)c1cccc(-c2cccc(Cl)c2Cl)c1` [Compound B282], for which the IC50 in assay [1] is 4770 nM; in assay [2] it was 3670 nM.
In the same order, the values of `O=C(Nc1ccc(OCCN2CCOCC2)c2ccccc12)c1cccc(-c2ccc(F)c(Cl)c2)c1` [Compound B275] are 3570 nM and 3980 nM.
For `O=C(Nc1ccc(OCCN2CCOCC2)c2ccccc12)c1cc(F)cc(F)c1` [Compound B204], in that order: > 10000 nM and > 10000 nM.
In the same order, the values of `CC1CCN(c2cc(F)cc(C(=O)Nc3ccc(N4CCN(C(=O)OC(C)(C)C)CC4)c4ccccc34)c2)CC1` [Compound B192] are 4720 nM and > 10000 nM.
With `CN(C)CC(C)(C)CNc1nccc(Oc2ccc(NC(=O)c3cc(F)cc(OC4CCCCC4)c3)c3ccccc23)n1` [Compound B313], the IC50 was 48.3 nM in assay [1]; 2 nM and 2.2 nM in assay [2].
With `Cc1cc(F)ccc1-c1cccc(C(=O)Nc2ccc(OCCN3CCOCC3)c3ccccc23)c1` [Compound B245], the IC50 in assay [1] amounted to 1140 nM; in assay [2] it was 631 nM.
`Cc1cccc(-c2cccc(C(=O)Nc3ccc(OCCN4CCOCC4)c4ccccc34)c2)c1` [Compound B104]: the IC50 in assay [1] was 4440 nM. Besides, in assay [2], the inhibition at 10 µM came out at 66% and the IC50 stood at 965 nM.
Turning to `O=C(Nc1ccc(OCCN2CCOCC2)c2ccccc12)c1ccc(N2CCOCC2)cc1` [Compound B29], the IC50 in assay [1] and in assay [2] was > 10000 nM in each case.
With `O=C(Nc1ccc(OCCN2CCOCC2)c2ccccc12)c1ccc(N2CCOCC2)nc1` [Compound B30], the IC50 in assay [1] and in assay [2] was > 10000 nM in each case.
Take `CN(C(=N)N)c1nccc(Oc2ccc(NC(=O)c3cc(F)cc(N4CCCCC4)c3)c3ccccc23)n1` [Compound B413]: the IC50 was > 1000 nM in assay [1] and 36.3 nM in assay [2].
For the compound `O=C(Nc1ccc(OCCN2CCOCC2)c2ccccc12)c1cccc(-c2ccc(Cl)c(Cl)c2)c1` [Compound B283], the IC50 in assay [1] and in assay [2] was > 10000 nM throughout.
`Cc1ccc(N2CCOCC2)cc1C(=O)Nc1ccc(OCCN2CCOCC2)c2ccccc12` [Compound B39, 2-Methyl-5-morpholin-4-yl-N-[4-(2-morpholin-4-yl-ethoxy)-naphthalen-1-yl]-benzamide]: the IC50 in assay [1] amounted to 2760 nM; in assay [2], 2460 nM.
`O=C(Nc1ccc(OCCN2CCOCC2)c2ccccc12)c1cccc(-c2ccncc2)c1` [Compound B86, N-[4-(2-Morpholin-4-yl-ethoxy)-naphthalen-1-yl]-3-pyridin-4-yl-benzamide]: the IC50 in assay [1] was 2710 nM; in assay [2], 4160 nM. Also, the inhibition at 10 µM in assay [2] was 67%.
For `O=C(Nc1ccc(OCCN2CCOCC2)c2ccccc12)c1ccnc(N2CCCCC2)c1` [Compound B127, 3,4,5,6-Tetrahydro-2 H-[1,2′]bipyridinyl-4′-carboxylic acid [4-(2-morpholin-4-yl-ethoxy)-naphthalen-1-yl]-amide], in that order: 782 nM, 1880 nM and 68.5%.
On to `O=C(Nc1ccc(Oc2ccnc(NC3CCCC3)n2)c2ccccc12)c1cc(F)cc(N2CCOCC2)c1` [Compound B250, N-(4-{[2-(Cyclopentylamino)pyrimidin-4-yl]oxy}-1-naphthyl)-3-fluoro-5-morpholin-4-ylbenzamide], for which the IC50 in assay [1] is 42 nM; in assay [2], 30.5 nM.
For `C=Cc1ccc(-c2cccc(C(=O)Nc3ccc(OCCN4CCOCC4)c4ccccc34)c2)cc1` [Compound B281], in that order: > 10000 nM and > 10000 nM.
In the same order, the values of `O=C(Nc1ccc(Oc2ccnc(NC[C@@H]3CCCO3)n2)c2ccccc12)c1cc(F)cc(N2CCOCC2)c1` [Compound B358] are 9.5 nM and 3.2 nM.
Regarding `Cc1cc(C)c(-c2cccc(C(=O)Nc3ccc(OCCN4CCOCC4)c4ccccc34)c2)cc1C` [Compound B302], the IC50 in assay [1] and in assay [2] was > 10000 nM throughout.

The values above are taken from patent US7829560B2, “1,4-disubstituted naphthalenes as inhibitors of P38 MAP kinase” (Arqule, Inc., priority 2004, dated 2010).
